Assay [1] relates to Y93H in genotype 1a NS5A replicon. The experiment in a line: Resistance mutant replicon assay, genotype 1a NS5A Y93H. In kind it is cell-based, HCV. Particulars: Hepatitis C virus, read-out: 1a Y93H (nM). The method in brief: (§1)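 Mutant NS5A replicons (1a or 1b Pi-RLuc backbone; 3a NS5A in chimeric 1b) made by site-directed mutagenesis, RNA transiently transfected into Huh-7-derived cured-51 cells. Cells treated with 3-fold serial dilutions for 72 h; Renilla luciferase read; EC50 by non-linear regression.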

Assay [2] concerns NS5A chimeric genotype 1b Con1 replicon with genotype 3a S52 strain NS5A gene. Briefly: HCV genotype 3a NS5A chimeric replicon assay. The assay is classed as cell-based. The following applies: Hepatitis C virus, 72 h, read-out: 3a (nM). In a few lines:
(§2)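 Stable 1b Con1 RLuc replicon cells, or Huh-Lunet cells transiently transfected with chimeric replicons (Con1 backbone carrying 3a S52 or 4a ED43 NS5A; JFH-1 backbone carrying 2b MD2b-1 NS5A, M31), treated with 3-fold dilutions for 72 h. Renilla luciferase read after lysis; EC50 by non-linear regression.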

In assay [3] the test system is Q30E in genotype 1a NS5A replicon. The experiment in a line: Resistance mutant replicon assay, genotype 1a NS5A Q30E. The assay is classed as cell-based, HCV. Particulars: Hepatitis C virus, read-out: 1a Q30E (nM). How it is done:
(§3) Evaluation of cell-based anti-HCV activity: Antiviral potency (EC50) was determined using a Renilla luciferase (RLuc)-based HCV replicon reporter assay. To perform the assay for genotype 1 and 2a JFH-1, stable HCV 1a RLuc replicon cells (harboring a dicistronic genotype 1a H77 replicon that encodes a RLuc reporter), stable HCV lb RLuc replicon cells (harboring a dicistronic genotype 1b Conl replicon that encodes a RLuc reporter), or stable HCV 2a JFH-1 Rluc replicon cells (harboring a dicistronic genotype 2a JFH-1 replicon that encodes a RLuc reporter; with L31 present in NS5A) were dispensed into 384-well plates for EC50 assays. To perform the assay for genotype 2a (with M31 present in NS5A) or 2b, NS5A chimeric genotype 2a JFH-1 replicons that encodes a RLuc-Neo reporter and either genotype 2a J6 strain NS5A gene or genotype 2b MD2b-1 strain NS5A gene (both with M31 present) respectively, were either transiently transfected (t) into Huh-Lunet cells or were established as stably replicating replicon cells (s) is provided. Either cells were dispensed into 384-well plates for EC50 assays. To perform the assay for genotype 3 and 4, NS5A chimeric genotype 1b Conl replicons that encodes a Pi-RLuc reporter and either genotype 3a S52 strain NS5A gene or genotype 4a ED43 strain NS5A gene respectively, were transiently transfected (t) into Huh-Lunet cells, which were subsequently dispensed into 384-well plates. Compounds were dissolved in DMSO at a concentration of 10 mM and diluted in DMSO either manually or using an automated pipeting instrument. Serially 3-fold diluted compounds were either manually mixed with cell culture media and added to the seeded cells or directly added to the cells using an automated instrument. DMSO was used as a negative (solvent; no inhibition) control, and the protease inhibitor ITMN-191 was included at a concentration >100×EC50 as a positive control. 72 hours later, cells were lysed and Renilla luciferase activity quantified as recommended by the manufacturer (Promega-Madison, Wis.). Non-linear regression was performed to calculate EC50 values.
(§4) To determine the antiviral potency (EC50) against resistance mutants, resistance mutations, including M28T, Q30R, Q30H, Q30E, L31M, Y93C, Y93H, and Y93N in genotype 1a NS5A, Y93H and L31V/Y93H in genotype 1b NS5A, and Y93H for in genotype 3a NS5A, were introduced individually into either 1a Pi-Rluc or 1b Pi-Rluc replicons by site directed mutagenesis. Replicon RNA of each resistant mutant was transiently transfected into Huh-7-derived cured-51 cells and antiviral potency was determined on these transfected cells as described above.

Assay [4] deals with NS5A chimeric genotype 2a JFH-1 replicon with genotype 2b MD2b-1 strain NS5A gene (M31). The experiment in a line: HCV genotype 2b NS5A chimeric replicon assay, transient (t). In kind it is cell-based. Particulars: Hepatitis C virus, 72 h, read-out: 2b (t) (nM). The method, then: as §3
The subject of assay [5] is NS5A chimeric genotype 2a JFH-1 replicon with genotype 2a J6 strain NS5A gene (M31). The experiment in a line: HCV genotype 2a J6 NS5A chimeric replicon assay, transient (t). In kind it is cell-based. Particulars: Hepatitis C virus, 72 h, read-out: 2a J6 (t) (nM).
Assay [6] relates to stable HCV 2a JFH-1 Rluc replicon cells (L31 present in NS5A). The experiment in a line: HCV genotype 2a JFH-1 RLuc replicon reporter assay. The assay is classed as cell-based. Particulars: Hepatitis C virus, 72 h, read-out: 2a JFH (nM).
The test system of assay [7] is L31V/Y93H in genotype 1b NS5A replicon. Briefly: Resistance mutant replicon assay, genotype 1b NS5A L31V/Y93H. Particulars: Hepatitis C virus, read-out: 1b L31V/Y93H (nM). In kind it is cell-based, HCV. How it is done:
as §3, §4

Assay [8] deals with Y93H in genotype 3a NS5A replicon. The experiment in a line: Resistance mutant replicon assay, genotype 3a NS5A Y93H. The assay is classed as cell-based, HCV. Particulars: Hepatitis C virus, read-out: 3a Y93H (nM). In a few lines: as §1
Assay [9] concerns stable HCV 1a RLuc replicon cells (genotype 1a H77 replicon). The experiment in a line: HCV genotype 1a RLuc replicon reporter assay. The assay is classed as cell-based. The following applies: Hepatitis C virus; stable genotype 1a H77 RLuc replicon cells, 72 hours.
The test system of assay [10] is NS5A chimeric genotype 1b Con1 replicon with genotype 4a ED43 strain NS5A gene. The experiment in a line: HCV genotype 4a NS5A chimeric replicon assay. The assay is classed as cell-based. The following applies: Hepatitis C virus, 72 h, read-out: 4a (s) (nM).
For assay [11], the system named is stable HCV 1b RLuc replicon cells (genotype 1b Con1 replicon). The experiment in a line: HCV genotype 1b RLuc replicon reporter assay. The assay is classed as cell-based. Particulars: Hepatitis C virus; stable genotype 1b Con1 RLuc replicon cells, 72 hours. In a few lines: as §2
The test system of assay [12] is Y93N in genotype 1a NS5A replicon. The experiment in a line: Resistance mutant replicon assay, genotype 1a NS5A Y93N. In kind it is cell-based, HCV. Particulars: Hepatitis C virus, read-out: 1a Y93N (nM). The method in brief: as §1

Molecules are shown by their SMILES. pEC50: −log10 of the molar value.

In the case of `CC[C@H]1CC[C@@H](c2nc3ccc4cc5c(cc4c3[nH]2)OCc2cc(-c3cnc([C@@H]4CC[C@H](C)N4C(=O)[C@@H](NC(=O)OC)C(C)C)[nH]3)ccc2-5)N1C(=O)[C@@H](NC(=O)OC)C1C[C@@H](C)O[C@H](C)C1` (stereo partly drawn) [Example AC, Methyl {(1S)-1-[(2R,6R)-2,6-dimethyltetrahydro-2H-pyran-4-yl]-2-[(2S,5S)-2-ethyl-5-(9-{2-[(2S,5S)-1-{(2S)-2-[(methoxycarbonyl)amino]-3-methylbutanoyl}-5-methylpyrrolidin-2-yl]-1H-imidazol-5-yl}-1,11-dihydroisochromeno[4′,3′:6,7]naphtho[1,2-d]imidazol-2-yl)pyrrolidin-1-yl]-2-oxoethyl}carbamate], the EC50 in assay [1] was determined as 0.832 nM; in [2], 0.019 nM; in [3] it was 0.312 nM; in assay [4] it was 0.02 nM; in [5], 0.003 nM; in [6], 0.016 nM. The EC50 in assay [7] was found to be 1.33 nM; in assay [8], 14.5 nM; in assay [10], 0.005 nM; in assay [12], 1.63 nM. Also, the pEC50 in [9] was 10.60; in [11], 10.52.

In the case of `CC[C@H]1C[C@@H](c2nc3ccc4cc5c(cc4c3[nH]2)OCc2cc(-c3cnc([C@@H]4CC[C@H](C)N4C(=O)[C@@H](NC(=O)OC)C(C)C)[nH]3)ccc2-5)N(C(=O)[C@@H](NC(=O)OC)C2C[C@@H](C)O[C@H](C)C2)C1` (stereo partly drawn) [Example AF, Methyl [(1S)-1-[(2R,6R)-2,6-dimethyltetrahydro-2H-pyran-4-yl]-2-{(2S,4S)-4-ethyl-2-[9-(2-{(2S,5S)-1-[N-(methoxycarbonyl)-L-valyl]-5-methylpyrrolidin-2-yl}-1H-imidazol-5-yl)-1,11-dihydroisochromeno[4′,3′:6,7]naphtho[1,2-d]imidazol-2-yl]pyrrolidin-1-yl}-2-oxoethyl]carbamate], the EC50 worked out at 0.268 nM in assay [1]; 0.016 nM in assay [2]; 0.097 nM in assay [3]; 0.014 nM in assay [4]; 0.003 nM in assay [5]; 0.012 nM in assay [6]. The EC50 was 0.18 nM in assay [7], 4.59 nM in [8], 0.005 nM in [10] and 0.899 nM in [12]. Moreover, the figures for the pEC50 in [9] and in [11] were 10.66 and 10.43, respectively.

The values are drawn from patent publication US20160362416A1, “ANTIVIRAL COMPOUNDS” (Gilead Sciences, Inc., priority 2012, published 2016).
